From US12593841B2, “Antimicrobial mixture containing 4-(3-ethoxy-4-hydroxyphenyl)butan-2-one and an arginate compound, and cosmetic composition containing same” (L'OREAL, priority 2017, dated 2026)
Values belong to the molecule of their own block, whether it stands above or below them.

How the values were obtained:
Assay type in all cases: cell-based
[1] = system: Staphylococcus aureus ATCC 6538; test: MIC / synergy (FIC index) microplate growth test on Staphylococcus aureus
Description: (§1) As regards the combinations tested, MICa with b and MICb with a are the respective concentrations of A and of B in the combinations which make it possible to obtain a microbial growth percentage of less than or equal to 25%.
(§2) When the FIC index value is less than or equal to 1, it is considered that the combination of test compounds has a synergistic effect.
The microbial strain Staphylococcus aureus ATCC 6538 and a double-concentration nutrient broth liquid culture medium were used.
(§3) A 96-well microplate at an incubation temperature of 32.5° C. is used.
(§4) The incubation time of the microplate for the three abovementioned strains is from 18 to 24 hours aerobically.
(§5) A 10% (weight/volume) stock solution was prepared by mixing 1 g of compound in 9 ml of aqueous 1‰ agar solution. Successive dilutions were made with the 1‰ agar solution. • Tests of compounds A and B alone
(§6) 50 μL of each of the daughter solutions obtained containing compound A or B are added to the microplate wells. 100 μl of Sabouraud liquid nutrient broth inoculated at double concentration with the strain Candida albicans and 50 μl of aqueous 1‰0 agar solution are also added thereto. • Tests of compounds A and B as a mixture
(§7) 50 μL of each of the daughter solutions obtained containing compound A and 50 μL of each of the daughter solutions obtained containing compound B are added to the microplate wells. 100 μl of Sabouraud liquid nutrient broth inoculated at double concentration with the strain Candida albicans are also added thereto.
(§8) A positive microbial growth control was also prepared. The positive microbial growth control corresponds to a mixture of 100 μl of aqueous 1‰ agar solution with 100 μl of Sabouraud liquid nutrient broth inoculated at double concentration with the strain Candida albicans in the absence of compounds A and B.
(§9) An absorbance control was performed in parallel on compounds A and B alone. This control corresponds to 100 μL of double concentration sterile Sabouraud liquid nutrient broth +100 μl of double concentration compound A or B.
(§10) In the three cases (absorbance control, growth control and test), the final volume present in each of the microplate wells is 200 μL.
(§11) The test as described above (tests, absorbance control and growth control) was performed again to test the combination A+B on the strains Staphylococcus aureus and Pseudomonas aeruginosa.

[2] = system: Candida albicans ATCC 10231; test: MIC / synergy (FIC index) microplate growth test on Candida albicans
Description: as §1, §2
The microbial strain Candida albicans ATCC 10231 and a double-concentration Sabouraud broth liquid culture medium were used.
as §3, §4, §5, §6, §7, §8, §9, §10
In the two cases (test and control), the inoculum represents the concentration of the strain Candida albicans present in the final volume of the wells (200 μL) and is between 2 and 6×10^5 cfu/ml of Candida albicans.

[3] = system: Pseudomonas aeruginosa ATCC 9027; test: MIC / synergy (FIC index) microplate growth test on Pseudomonas aeruginosa
Description: as §1, §2
The microbial strain Pseudomonas aeruginosa ATCC 9027 and a double-concentration nutrient broth liquid culture medium were used.
as §3, §4, §5, §6, §7, §8, §9, §10, §11

[4] = weight % of active material, growth <= 25%

% MIC of A alone [1, 4]: 0.5% | % MIC of A alone [2, 4]: 0.2% | % MIC of A alone [3, 4]: 2%
SMILES: CCOc1cc(CCC(C)=O)ccc1O [A, 4-(3-ethoxy-4-hydroxyphenyl)butan-2-one]
microbial growth percentage ([1]; 0.125 weight % A alone (0 B)): 58% | microbial growth percentage ([1]; 0.25 weight % A alone (0 B)): 60% | microbial growth percentage ([1]; 0.5 weight % A alone (0 B)): 0% | microbial growth percentage ([2]; 0.025 weight % A alone (0 B)): 80% | microbial growth percentage ([2]; 0.05 weight % A alone (0 B)): 62% | microbial growth percentage ([2]; 0.1 weight % A alone (0 B)): 24% | microbial growth percentage ([2]; 0.2 weight % A alone (0 B)): 3% | microbial growth percentage ([3]; 0.125 weight % A alone (0 B)): 99% | microbial growth percentage ([3]; 0.25 weight % A alone (0 B)): 46% | microbial growth percentage ([3]; 0.5 weight % A alone (0 B)): 37% | microbial growth percentage ([3]; 1 weight % A alone (0 B)): 41% | microbial growth percentage ([3]; 2 weight % A alone (0 B)): 19%

% MIC of B alone [1, 4]: 0.0005% | % MIC of B alone [2, 4]: 0.005% | % MIC of B alone [3, 4]: 0.005%
SMILES: CCCCCCCCCCCC(=O)N[C@@H](CCCNC(=N)N)C(=O)OCC.Cl [B, ethyl N-lauroyl arginate hydrochloride, reference compound]
microbial growth percentage ([1]; 0.00025 weight % B alone (0 A)): 71% | microbial growth percentage ([1]; 0.0005 weight % B alone (0 A)): 0% | microbial growth percentage ([2]; 0.0025 weight % B alone (0 A)): 28% | microbial growth percentage ([2]; 0.005 weight % B alone (0 A)): 9% | microbial growth percentage ([3]; 0.0025 weight % B alone (0 A)): 37% | microbial growth percentage ([3]; 0.005 weight % B alone (0 A)): 10%
